Reference: ChEMBL document CHEMBL4828748, “Design, synthesis, and pharmacological evaluation of sinomenine derivatives on rings A and C: Novel compounds screening for aplastic anemia targeting on cytotoxic T lymphocyte” (Eur J Med Chem, 2021)

Legend:
[1] = Cytotoxicity against C57BL/6J mouse peritoneal macrophages assessed as reduction of cell viability at 10 uM incubated for 24 hrs in presence of LPS by MTT assay; type: cell-based, Peritoneal macrophage
[2] = Inhibition of mouse CTLL-2 cells activity at 10 uM incubated for 24 hrs; type: functional
[3] = test system: Peritoneal macrophage; assay: Inhibition of LPS-induced NO production in C57BL/6J mouse peritoneal macrophages at 10 uM measured after 24 hrs in presence of LPS by Griess reagent based assay relative to control; type: functional
[4] = Inhibition of mouse CTLL-2 cells activity incubated for 24 hrs; type: functional, cell-based
[5] = Acute toxicity in po dosed Kunming mouse; type: organism-based; details: in vivo
[6] = Cytotoxicity against C57BL/6J mouse peritoneal macrophages assessed as reduction of cell viability at 1 uM incubated for 24 hrs in presence of LPS by MTT assay; type: cell-based, Peritoneal macrophage
[7] = test system: Peritoneal macrophage; assay: Inhibition of LPS-induced NO production in C57BL/6J mouse peritoneal macrophages at 1 uM measured after 24 hrs in presence of LPS by Griess reagent based assay relative to control; type: functional

Compound: C/C=C/C=C/C(=O)Oc1c(OC)ccc2c1[C@@]13CCN(C)[C@@H](C2)[C@H]1C[C@@H](OC)C(=O)C3
- inhibition at 24 h, 10 µM [1]: 5.1%
- inhibition at 10 µM [2]: 1.1%
- inhibition at 10 µM [3]: 40.7%

Compound: COC1=C[C@@H]2[C@@H]3Cc4ccc(OC)c(OC(=O)/C=C/c5ccccc5)c4[C@]2(CCN3C)CC1=O
- inhibition at 24 h, 10 µM [1]: -3.3%
- inhibition at 10 µM [2]: 5.4%
- inhibition at 10 µM [3]: 61.1%

Compound: C=CCCCCCCCCC(=O)Oc1c(OC)cc(C=O)c2c1[C@@]13CCN(C)[C@@H](C2)[C@H]1C=C(OC)C(=O)C3
- inhibition at 24 h, 10 µM [1]: 1.3%
- inhibition at 10 µM [2]: 23.4%
- inhibition at 10 µM [3]: 11.6%

Compound: COc1ccc2c(c1OC(=O)/C=C/c1ccccc1)[C@@]13CCN(C)[C@@H](C2)[C@H]1C[C@@H](OC)C(=O)C3
- inhibition at 24 h, 10 µM [1]: 4.8%
- inhibition at 10 µM [2]: 11.6%
- inhibition at 10 µM [3]: 57.4%

Compound: C=CCCCCCCCCC(=O)Oc1c(OC)ccc2c1[C@@]13CCN(C)[C@@H](C2)[C@H]1C=C(OC)C(=O)C3
- inhibition at 24 h, 10 µM [1]: 8.8%
- IC50 [4]: 7.6 µM
- inhibition at 10 µM [2]: 52.8%
- inhibition at 10 µM [3]: 94%

Compound: COC1=C[C@@H]2[C@@H]3Cc4c(CO)cc(OC)c(O)c4[C@]2(CCN3C)CC1=O
- inhibition at 24 h, 10 µM [1]: 1.2%
- inhibition at 10 µM [2]: 6.1%
- inhibition at 10 µM [3]: 3.6%

Compound: CCCCCCCCCCCCCC(=O)Oc1c(OC)cc(C=O)c2c1[C@@]13CCN(C)[C@@H](C2)[C@H]1C=C(OC)C(=O)C3
- inhibition at 24 h, 10 µM [1]: 0.5%
- IC50 [4]: 3.7 µM
- inhibition at 10 µM [2]: 90.8%
- inhibition at 10 µM [3]: 33.9%

Compound: COc1ccc2c(c1O)[C@@]13CCN(C)[C@@H](C2)[C@H]1C[C@@H](OC)C(=O)C3
- inhibition at 24 h, 10 µM [1]: 6.5%
- inhibition at 10 µM [2]: 5.8%
- inhibition at 10 µM [3]: 6.5%

Compound: CCCCCCCC/C=C/CCCCCCCCCCCC(=O)Oc1c(OC)cc(C=O)c2c1[C@@]13CCN(C)[C@@H](C2)[C@H]1C=C(OC)C(=O)C3
- inhibition at 24 h, 10 µM [1]: 0.5%
- inhibition at 10 µM [2]: 29.6%
- inhibition at 10 µM [3]: 18.6%

Compound: COc1ccc2c(c1OC(=O)c1cccnc1)[C@@]13CCN(C)[C@@H](C2)[C@H]1C[C@@H](OC)C(=O)C3
- inhibition at 24 h, 10 µM [1]: 3.1%
- inhibition at 10 µM [2]: 9.1%
- inhibition at 10 µM [3]: 11.2%

Compound: CCCCCCCC/C=C/CCCCCCCCCCCC(=O)OCc1cc(OC)c(OC(=O)CCCCCCCCCCC/C=C/CCCCCCCC)c2c1C[C@H]1[C@H]3C=C(OC)C(=O)C[C@@]23CCN1C
- inhibition at 24 h, 10 µM [1]: 0.2%
- inhibition at 10 µM [2]: 6.7%
- inhibition at 10 µM [3]: 1.1%

Compound: CCCCCCCCCCCC(=O)Oc1c(OC)ccc2c1[C@@]13CCN(C)[C@@H](C2)[C@H]1C[C@@H](OC)C(=O)C3
- inhibition at 24 h, 10 µM [1]: 3.1%
- IC50 [4]: 4.4 µM
- inhibition at 10 µM [2]: 96.7%
- inhibition at 10 µM [3]: 5%

Compound: COC1=C[C@@H]2[C@@H]3Cc4c(C=O)cc(OC)c(O)c4[C@]2(CCN3C)CC1=O
- inhibition at 24 h, 10 µM [1]: 2.5%
- inhibition at 10 µM [2]: 3.5%
- inhibition at 10 µM [3]: 4.2%

Compound: CCCCCCCCCCCCCCCC(=O)OCc1cc(OC)c(OC(=O)CCCCCCCCCCCCCCC)c2c1C[C@H]1[C@H]3C=C(OC)C(=O)C[C@@]23CCN1C
- inhibition at 24 h, 10 µM [1]: 5.3%
- inhibition at 10 µM [2]: 20.5%
- inhibition at 10 µM [3]: -2.4%

Compound: CCCCCCCCCCCCCCCC(=O)Oc1c(OC)cc(C=O)c2c1[C@@]13CCN(C)[C@@H](C2)[C@H]1C=C(OC)C(=O)C3
- inhibition at 24 h, 10 µM [1]: -1.9%
- inhibition at 10 µM [2]: 32.2%
- inhibition at 10 µM [3]: 21%

Compound: C/C=C/C=C/C(=O)Oc1c(OC)ccc2c1[C@@]13CCN(C)[C@@H](C2)[C@H]1C=C(OC)C(=O)C3
- inhibition at 24 h, 10 µM [1]: 0.3%
- inhibition at 10 µM [2]: 14.3%
- inhibition at 10 µM [3]: 46.9%

Compound: CCCCCCCCCCCC(=O)Oc1c(OC)cc(C=O)c2c1[C@@]13CCN(C)[C@@H](C2)[C@H]1C=C(OC)C(=O)C3
- inhibition at 24 h, 10 µM [1]: 0%
- inhibition at 10 µM [2]: 25.2%
- inhibition at 10 µM [3]: 2.2%

Compound: C=CCCCCCCCCC(=O)OCc1cc(OC)c(OC(=O)CCCCCCCCC=C)c2c1C[C@H]1[C@H]3C=C(OC)C(=O)C[C@@]23CCN1C
- inhibition at 24 h, 10 µM [1]: 9.3%
- inhibition at 10 µM [2]: 33.9%
- inhibition at 10 µM [3]: -0.9%

Compound: CCCCCCCCCCCC(=O)Oc1c(OC)ccc2c1[C@@]13CCN(C)[C@@H](C2)[C@H]1C=C(OC)C(=O)C3
- inhibition at 24 h, 10 µM [1]: 4.4%
- IC50 [4]: 3.8 µM
- inhibition at 10 µM [2]: 98.7%
- inhibition at 10 µM [3]: 42.7%

Compound: COc1ccc2c(c1OC(C)=O)[C@@]13CCN(C)[C@@H](C2)[C@H]1C[C@@H](OC)C(=O)C3
- inhibition at 24 h, 10 µM [1]: 3.2%
- inhibition at 10 µM [2]: 12.5%
- inhibition at 10 µM [3]: 5.6%

Compound: CCCCCCCCCCCCCC(=O)Oc1c(OC)ccc2c1[C@@]13CCN(C)[C@@H](C2)[C@H]1C=C(OC)C(=O)C3
- inhibition at 24 h, 10 µM [1]: 2.7%
- IC50 [4]: 4.3 µM
- inhibition at 10 µM [2]: 88.1%
- inhibition at 10 µM [3]: 4.3%

Compound: COC1=C[C@@H]2[C@@H]3Cc4c(C=O)cc(OC)c(OC(=O)/C=C/c5ccccc5)c4[C@]2(CCN3C)CC1=O
- inhibition at 24 h, 10 µM [1]: 0.6%
- inhibition at 10 µM [2]: 4.7%
- inhibition at 10 µM [3]: 21.6%

Compound: CCCCCCCCCCCC(=O)OCc1cc(OC)c(OC(=O)CCCCCCCCCCC)c2c1C[C@H]1[C@H]3C=C(OC)C(=O)C[C@@]23CCN1C
- inhibition at 24 h, 10 µM [1]: 6.2%
- inhibition at 10 µM [2]: 6.8%
- inhibition at 10 µM [3]: 3.4%

Compound: C/C=C/C=C/C(=O)Oc1c(OC)cc(C=O)c2c1[C@@]13CCN(C)[C@@H](C2)[C@H]1C=C(OC)C(=O)C3
- inhibition at 24 h, 10 µM [1]: 1.4%
- inhibition at 10 µM [2]: 14%
- inhibition at 10 µM [3]: 46%

Compound: CCCCCCCCCCCCCCCC(=O)Oc1c(OC)ccc2c1[C@@]13CCN(C)[C@@H](C2)[C@H]1C[C@@H](OC)C(=O)C3
- inhibition at 24 h, 10 µM [1]: 1.7%
- inhibition at 10 µM [2]: 45.3%
- inhibition at 10 µM [3]: 93.5%

Compound: C/C=C/C[C@@H](C)[C@@H](O)[C@H]1C(=O)N[C@@H](CC)C(=O)N(C)CC(=O)N(C)[C@@H](CC(C)C)C(=O)N[C@@H](C(C)C)C(=O)N(C)[C@@H](CC(C)C)C(=O)N[C@@H](C)C(=O)N[C@H](C)C(=O)N(C)[C@@H](CC(C)C)C(=O)N(C)[C@@H](CC(C)C)C(=O)N(C)[C@@H](C(C)C)C(=O)N1C [CYCLOSPORINE]
- inhibition at 10 µM [2]: 96.8%

Compound: CCCCCCCC/C=C/CCCCCCCCCCCC(=O)Oc1c(OC)ccc2c1[C@@]13CCN(C)[C@@H](C2)[C@H]1C=C(OC)C(=O)C3
- inhibition at 24 h, 10 µM [1]: 0.4%
- inhibition at 10 µM [2]: 32.6%
- inhibition at 10 µM [3]: 3.5%

Compound: COC1=C[C@@H]2[C@@H]3Cc4ccc(OC)c(O)c4[C@]2(CCN3C)CC1=O [SINOMENINE]
- inhibition at 24 h, 10 µM [1]: 1.3%
- LD50 [5]: 1100 mg/kg
- inhibition at 10 µM [2]: 2.8%
- inhibition at 10 µM [3]: 7.5%

Compound: COC1=C[C@@H]2[C@@H]3Cc4c(C=O)cc(OC)c(OC(C)=O)c4[C@]2(CCN3C)CC1=O
- inhibition at 24 h, 10 µM [1]: 0.2%
- inhibition at 10 µM [2]: 10.3%
- inhibition at 10 µM [3]: 0.6%

Compound: CCCCCCCCCCCCCC(=O)OCc1cc(OC)c(OC(=O)CCCCCCCCCCCCC)c2c1C[C@H]1[C@H]3C=C(OC)C(=O)C[C@@]23CCN1C
- inhibition at 24 h, 10 µM [1]: 2.5%
- inhibition at 10 µM [2]: -0.9%
- inhibition at 10 µM [3]: 10.1%

Compound: C[C@@H]1C[C@H]2[C@@H]3CCC4=CC(=O)C=C[C@]4(C)[C@@]3(F)[C@@H](O)C[C@]2(C)[C@@]1(O)C(=O)CO [DEXAMETHASONE]
- inhibition at 24 h, 1 µM [6]: 17%
- inhibition at 1 µM [7]: 62.8%

Compound: C/C=C/C=C/C(=O)OCc1cc(OC)c(OC(=O)/C=C/C=C/C)c2c1C[C@H]1[C@H]3C=C(OC)C(=O)C[C@@]23CCN1C
- inhibition at 24 h, 10 µM [1]: 6.1%
- inhibition at 10 µM [2]: 6.2%
- inhibition at 10 µM [3]: 90.8%

Compound: CCCCCCCCCCCCCC(=O)Oc1c(OC)ccc2c1[C@@]13CCN(C)[C@@H](C2)[C@H]1C[C@@H](OC)C(=O)C3
- inhibition at 24 h, 10 µM [1]: 4.6%
- IC50 [4]: 6.7 µM
- inhibition at 10 µM [2]: 98.3%
- inhibition at 10 µM [3]: 46.2%

Compound: COC1=C[C@@H]2[C@@H]3Cc4ccc(OC)c(OC(=O)c5cccnc5)c4[C@]2(CCN3C)CC1=O
- inhibition at 24 h, 10 µM [1]: 0.8%
- inhibition at 10 µM [2]: 3.2%
- inhibition at 10 µM [3]: 14%
